The values that follow come from ChEMBL document CHEMBL1126401, “New potent enkephalin analogs containing trifluoromethylamino acid residues” (Bioorg Med Chem Lett, 1992).

*1 amine or outer side, *2 acyl side, *3 side chain or, on linkers, in order; H or OH if unused. Where a SMILES comes first, the peptide text is derived from it. [ ]: non-standard residue; d: D form. Nva(5,5,5-F3) = N[C@@H](CCC(F)(F)F)C(=O)O; X1 = O=C([C@@H](CCC(F)(F)F)N[*:1])[*:2]; X2 = O=C([C@H](CCCC(F)(F)F)N[*:1])[*:2]; NMeF = CN[C@@H](Cc1ccccc1)C(=O)O

For assay [1], the system named is Mus musculus. In words: In vivo analgesic activity of fluoro-enkephalin analog was determined against the compound at 10E-9 M/mouse; i.c.v. Format: functional.
Assay [2] addresses Delta-type opioid receptor (Rattus norvegicus, UniProt P33533). As to the kind of experiment: Compound was evaluated for its binding affinity against enkephalin delta receptor using [3H]DPDPE as ligand in rat cerebrum in vitro.
Assay [3] addresses Kappa-type opioid receptor (Cavia porcellus, UniProt P41144). In words: Compound was evaluated for its binding affinity against enkephalin kappa receptor using [3H]U-69593 as ligand in guinea pig cerebrum in vitro.
The target of assay [4] is Mu-type opioid receptor (Rattus norvegicus, UniProt P33535). In words: Compound was evaluated for its binding affinity against enkephalin mu receptor using [3H]PL-017 as ligand in rat cerebrum in vitro.
Sequence of Mu-type opioid receptor (P33535 whole entry): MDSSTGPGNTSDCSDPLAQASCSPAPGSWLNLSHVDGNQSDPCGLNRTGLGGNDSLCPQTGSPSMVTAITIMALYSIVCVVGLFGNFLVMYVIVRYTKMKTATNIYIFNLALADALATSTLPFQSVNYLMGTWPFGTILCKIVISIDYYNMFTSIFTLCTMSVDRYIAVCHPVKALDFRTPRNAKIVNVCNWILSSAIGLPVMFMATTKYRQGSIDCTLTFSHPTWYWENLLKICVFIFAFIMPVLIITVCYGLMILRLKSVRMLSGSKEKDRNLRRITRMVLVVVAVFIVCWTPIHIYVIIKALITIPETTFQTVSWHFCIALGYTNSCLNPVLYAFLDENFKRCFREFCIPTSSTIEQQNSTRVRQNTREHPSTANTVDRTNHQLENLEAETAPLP

Sequence of Delta-type opioid receptor (P33533 whole entry): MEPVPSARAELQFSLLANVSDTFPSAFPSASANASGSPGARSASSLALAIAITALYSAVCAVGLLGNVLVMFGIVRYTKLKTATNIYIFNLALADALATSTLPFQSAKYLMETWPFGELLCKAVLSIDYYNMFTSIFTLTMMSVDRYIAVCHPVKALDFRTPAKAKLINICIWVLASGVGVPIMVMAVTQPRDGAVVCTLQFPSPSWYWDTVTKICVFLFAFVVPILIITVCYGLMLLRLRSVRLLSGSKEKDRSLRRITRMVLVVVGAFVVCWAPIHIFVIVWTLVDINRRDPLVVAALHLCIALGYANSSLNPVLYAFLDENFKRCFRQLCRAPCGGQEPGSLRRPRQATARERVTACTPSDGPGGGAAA
Sequence of Kappa-type opioid receptor (P41144 whole entry): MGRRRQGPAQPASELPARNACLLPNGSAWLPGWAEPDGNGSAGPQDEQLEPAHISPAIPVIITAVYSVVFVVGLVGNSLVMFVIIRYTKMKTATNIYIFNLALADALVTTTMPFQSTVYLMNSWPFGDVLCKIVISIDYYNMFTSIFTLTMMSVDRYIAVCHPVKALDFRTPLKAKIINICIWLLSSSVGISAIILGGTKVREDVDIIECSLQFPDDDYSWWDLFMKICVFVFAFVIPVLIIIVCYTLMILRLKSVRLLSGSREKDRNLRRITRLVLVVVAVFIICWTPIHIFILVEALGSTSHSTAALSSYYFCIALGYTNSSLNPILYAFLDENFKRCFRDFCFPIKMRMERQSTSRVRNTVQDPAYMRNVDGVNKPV

Turning to `CSCC[C@H](NC(=O)[C@H](Cc1ccccc1)NC(=O)CNC(=O)CNC(=O)[C@@H](N)Cc1ccc(O)cc1)C(=O)O`, the ED50 in assay [1] was determined as 7e-07 M mouse-1.
On the same count and under the same terms, then `CCC[C@@H](NC(=O)[C@@H](N)Cc1ccc(O)cc1)C(=O)NCC(=O)N[C@@H](Cc1ccccc1)C(=O)N[C@@H](CCSC)C(N)=O`, with 4e-11 M mouse-1; and `CSCC[C@H](NC(=O)[C@H](Cc1ccccc1)NC(=O)[C@H](CCC(F)(F)F)NC(=O)CNC(=O)[C@@H](N)Cc1ccc(O)cc1)C(N)=O` (H-YG[Nva(5,5,5-F3)]FM-NH2), with 2.2e-08 M mouse-1; and `CSCC[C@H](NC(=O)[C@H](Cc1ccccc1)NC(=O)[C@H](CCC(F)(F)F)NC(=O)CNC(=O)[C@@H](N)Cc1ccc(O)cc1)C(=O)O` (H-YG[Nva(5,5,5-F3)]FM-OH), with 1.4e-07 M mouse-1.
In assay [1], `CSCC[C@H](NC(=O)[C@H](Cc1ccccc1)NC(=O)[C@@H](CCC(F)(F)F)NC(=O)CNC(=O)[C@@H](N)Cc1ccc(O)cc1)C(N)=O` (H-YG[X1]FM-NH2) yielded an ED50 of 1.2e-08 M mouse-1.
As a reminder, the IC50 is the point on the concentration scale where inhibition reaches its midpoint. Higher therefore signals a need for much substance. Consider `CSCC[C@H](NC(=O)[C@H](Cc1ccccc1)NC(=O)CNC(=O)[C@H](CCC(F)(F)F)NC(=O)[C@@H](N)Cc1ccc(O)cc1)C(N)=O` (H-Y[Nva(5,5,5-F3)]GFM-NH2), for which the ED50 in assay [1] amounted to 7e-12 M mouse-1. Besides, the IC50 was 2 nM in assay [2], 400 nM in assay [3] and 0.5 nM in assay [4].
For `CSCC[C@H](NC(=O)[C@H](Cc1ccccc1)N(C)C(=O)CNC(=O)[C@H](CCC(F)(F)F)NC(=O)[C@@H](N)Cc1ccc(O)cc1)C(N)=O` (H-Y[Nva(5,5,5-F3)]G[NMeF]M-NH2), the ED50 in assay [1] came out at 2e-12 M mouse-1.
The molecule `CSCC[C@H](NC(=O)[C@H](Cc1ccccc1)NC(=O)CNC(=O)[C@@H](CCC(F)(F)F)NC(=O)[C@@H](N)Cc1ccc(O)cc1)C(N)=O` (H-Y[X1]GFM-NH2) displayed an ED50 in assay [1] of 2.5e-08 M mouse-1.
Same read-out and setting: next, `CSCC[C@H](NC(=O)[C@H](Cc1ccccc1)NC(=O)CNC(=O)[C@@H](CCC(F)(F)F)NC(=O)[C@@H](N)Cc1ccc(O)cc1)C(=O)O` (H-Y[X1]GFM-OH): 1.2e-07 M mouse-1.
In assay [1], `CSCC[C@H](NC(=O)[C@H](Cc1ccccc1)NC(=O)CNC(=O)[C@H](CCCC(F)(F)F)NC(=O)[C@@H](N)Cc1ccc(O)cc1)C(N)=O` (H-Y[X2]GFM-NH2) yielded an ED50 of 7e-11 M mouse-1.
Molecule `CN1CC[C@]2(C)CC(Cc3ccc(O)cc32)C1` (single isomer, unassigned) [EPTAZOCINE] yielded an ED50 in assay [1] of 5e-11 M mouse-1.
For `CN1CC[C@]23c4c5ccc(O)c4O[C@H]2[C@@H](O)C=C[C@H]3[C@H]1C5.Cl` [MORPHINE HYDROCHLORIDE], the ED50 in assay [1] came out at 7e-11 M mouse-1.
